Assay results published in article PMC2816653, “Pre-clinical evaluation of cyclin-dependent kinase 2 and 1 inhibition in anti-estrogen-sensitive and resistant breast cancer cells” (British Journal of Cancer, 2009).

Key:
Assay in all cases: biochemical
Parameters in all cases: in vitro kinase inhibition assay
DYRK1a = DYRK1a (Homo sapiens, UniProt Q13627)
CDK5/p25 = target: T1, CDK5/p25 (Homo sapiens, UniProt Q00535); settings: read-out: NU2058 % inhibition
T1 construct: with p25

CDK9/cyclin T = CDK9/cyclin T (Homo sapiens, UniProt P50750); settings: read-out: NU2058 % inhibition
CDK9/cyclin T, sequence (P50750 whole entry): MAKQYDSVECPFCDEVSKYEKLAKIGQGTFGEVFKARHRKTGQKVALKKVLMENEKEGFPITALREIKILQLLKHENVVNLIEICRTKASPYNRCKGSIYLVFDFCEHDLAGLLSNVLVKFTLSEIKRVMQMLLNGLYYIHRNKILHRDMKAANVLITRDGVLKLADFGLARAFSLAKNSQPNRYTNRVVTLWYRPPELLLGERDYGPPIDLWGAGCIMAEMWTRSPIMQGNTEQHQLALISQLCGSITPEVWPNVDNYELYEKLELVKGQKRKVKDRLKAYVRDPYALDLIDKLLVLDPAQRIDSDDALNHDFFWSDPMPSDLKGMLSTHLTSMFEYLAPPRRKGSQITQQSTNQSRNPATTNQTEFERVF
CDK9/cyclin T, sequence (O60563 whole entry partner): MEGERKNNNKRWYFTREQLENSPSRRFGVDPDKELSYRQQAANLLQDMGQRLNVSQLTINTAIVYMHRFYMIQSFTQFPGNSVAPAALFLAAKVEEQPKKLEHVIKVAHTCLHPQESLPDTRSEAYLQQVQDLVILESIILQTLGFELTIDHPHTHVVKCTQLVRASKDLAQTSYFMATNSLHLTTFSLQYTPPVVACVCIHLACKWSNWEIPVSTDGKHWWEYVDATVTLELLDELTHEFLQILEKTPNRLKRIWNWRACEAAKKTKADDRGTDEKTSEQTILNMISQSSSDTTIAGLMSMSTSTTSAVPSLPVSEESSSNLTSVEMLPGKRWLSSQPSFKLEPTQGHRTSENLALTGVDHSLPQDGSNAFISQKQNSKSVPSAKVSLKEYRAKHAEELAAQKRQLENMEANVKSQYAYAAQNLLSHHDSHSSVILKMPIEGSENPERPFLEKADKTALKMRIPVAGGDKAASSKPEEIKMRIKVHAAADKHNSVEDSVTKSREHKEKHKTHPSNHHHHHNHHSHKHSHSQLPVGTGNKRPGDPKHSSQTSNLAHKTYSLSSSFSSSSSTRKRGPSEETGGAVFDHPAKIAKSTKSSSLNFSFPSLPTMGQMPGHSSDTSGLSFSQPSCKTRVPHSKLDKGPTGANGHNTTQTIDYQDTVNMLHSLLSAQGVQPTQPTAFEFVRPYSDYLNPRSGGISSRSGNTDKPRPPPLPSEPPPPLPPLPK

T1 sequence (Q00535 whole entry): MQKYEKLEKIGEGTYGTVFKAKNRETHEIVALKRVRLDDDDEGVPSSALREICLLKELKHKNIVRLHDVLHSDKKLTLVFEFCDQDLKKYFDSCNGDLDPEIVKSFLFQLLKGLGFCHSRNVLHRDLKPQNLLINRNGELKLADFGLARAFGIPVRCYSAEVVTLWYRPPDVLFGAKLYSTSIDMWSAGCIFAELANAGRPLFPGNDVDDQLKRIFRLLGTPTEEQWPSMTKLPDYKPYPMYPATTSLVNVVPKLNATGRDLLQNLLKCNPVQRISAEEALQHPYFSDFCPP
T1 sequence (Q15078 whole entry partner): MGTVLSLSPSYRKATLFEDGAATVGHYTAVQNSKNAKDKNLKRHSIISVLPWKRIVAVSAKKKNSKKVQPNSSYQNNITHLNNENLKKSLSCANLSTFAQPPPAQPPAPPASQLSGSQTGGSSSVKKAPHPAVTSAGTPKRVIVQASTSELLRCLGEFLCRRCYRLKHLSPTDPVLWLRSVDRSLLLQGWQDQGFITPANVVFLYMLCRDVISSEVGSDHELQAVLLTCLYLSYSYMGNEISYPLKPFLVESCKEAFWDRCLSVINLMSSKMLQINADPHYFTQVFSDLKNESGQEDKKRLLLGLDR

Row | IC50 (DYRK1a) | inhibition at 100 µM (CDK5/p25) | inhibition at 100 µM (CDK9/cyclin T) | Structure (SMILES)
1 | 950 nM | – | – | NS(=O)(=O)c1ccc(Nc2nc(OCC3CCCCC3)c3nc[nH]c3n2)cc1 [NU6102]
2 | – | 50% | 43% | Nc1nc(OCC2CCCCC2)c2nc[nH]c2n1 [NU2058]
